The text below walks through data of US20240270809A1, “ORAL GLP RECEPTOR AGONISTS” (priority 2020, published 2024).

Positions of bridges follow the written chain, without caps; N, C: chain ends. Non-standard residues stand in square brackets, D forms with d. Residues, ends and D or L forms follow the SMILES beside them. *: point of attachment. Malonyl(2,2-Me2,histaminyl) = CC(C)(C(=O)NCCc1cnc[nH]1)C(=O)*; Ala(1H-tetrazol-5-yl) = N[C@@H](Cc1nnn[nH]1)C(=O)O; αMePhe(2-F) = C[C@](N)(Cc1ccccc1F)C(=O)O; αMeL = CC(C)C[C@](C)(N)C(=O)O; Nle = CCCC[C@H](N)C(=O)O; Aib = CC(C)(N)C(=O)O

For one series, the target named is T1, human GLP1 receptor (Homo sapiens, UniProt P43220).
T1 construct: expressed in transfected cells; host or cells: HEK cells, BacMam virus transduction
T1 sequence (P43220 24-463): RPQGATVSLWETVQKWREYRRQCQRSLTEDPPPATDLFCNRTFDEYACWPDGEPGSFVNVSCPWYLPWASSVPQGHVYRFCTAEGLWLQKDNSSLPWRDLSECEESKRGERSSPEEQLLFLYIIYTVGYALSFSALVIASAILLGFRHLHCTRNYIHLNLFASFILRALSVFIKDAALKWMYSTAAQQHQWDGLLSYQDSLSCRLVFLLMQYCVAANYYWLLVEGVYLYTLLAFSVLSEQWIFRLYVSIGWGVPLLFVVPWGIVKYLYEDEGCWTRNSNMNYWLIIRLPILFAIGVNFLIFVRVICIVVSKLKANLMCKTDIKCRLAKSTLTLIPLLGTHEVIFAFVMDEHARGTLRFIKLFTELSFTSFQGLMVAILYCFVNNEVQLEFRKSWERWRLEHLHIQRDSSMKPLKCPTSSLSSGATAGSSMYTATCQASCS
Description: cAMP accumulation assay, functional agonism of human GLP1 receptor. Conditions: HEK cells infected with human GLP1 receptor BacMam virus, HTRF cAMP; for Emax: HEK293, read-out: Human GLP-1R agonist cAMP Emax; for EC50: read-out: Human GLP-1R agonist cAMP pEC50 (converted). The class given is cell-based. Put shortly:
(§1)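 cAMP by HTRF in BacMam-transduced HEK cells (24 h infection, frozen stocks); 0.5 mM IBMX in HBSS, 45 min, 37° C.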
Background: Changes in cAMP serve as a functional read-out for many G protein-coupled receptors.

In a further series the target is T2, mouse GLP2 receptor (Mus musculus, UniProt Q5IXF8).
T2 construct: expressed in transfected cells; host or cells: HEK cells, transient transfection with GeneJuice
T2 sequence (Q5IXF8 1-512): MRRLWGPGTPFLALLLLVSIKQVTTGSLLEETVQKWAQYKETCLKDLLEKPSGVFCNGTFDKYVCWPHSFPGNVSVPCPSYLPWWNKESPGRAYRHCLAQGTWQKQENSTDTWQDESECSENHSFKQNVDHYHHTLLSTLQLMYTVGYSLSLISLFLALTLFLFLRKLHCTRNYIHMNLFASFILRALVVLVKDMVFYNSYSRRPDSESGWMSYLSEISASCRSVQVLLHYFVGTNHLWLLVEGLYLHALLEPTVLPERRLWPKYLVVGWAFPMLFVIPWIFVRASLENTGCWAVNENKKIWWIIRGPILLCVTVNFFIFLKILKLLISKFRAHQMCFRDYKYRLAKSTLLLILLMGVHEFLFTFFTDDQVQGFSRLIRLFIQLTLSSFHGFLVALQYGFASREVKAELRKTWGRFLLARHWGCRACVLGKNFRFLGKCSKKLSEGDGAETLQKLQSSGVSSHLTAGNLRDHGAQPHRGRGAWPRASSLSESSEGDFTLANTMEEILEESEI
Description: cAMP accumulation assay, functional agonism of mouse GLP2 receptor. Format: cell-based. Conditions: HEK cells transiently transfected with mouse GLP2 receptor, HTRF cAMP. Put shortly: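 pEC50 values come from four-parameter fits of HTRF cAMP signal, read after lysis and 1 h RT incubation. Compounds were incubated 45 min at 37 °C with previously frozen, transiently transfected HEK cells (8000/well) in HBSS containing 0.5 mM IBMX.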

A short description of series [1]: Stability of peptides in Fasted-State Simulated Intestinal Fluid (FaSSIF). The class given is in vitro ADME. Conditions: FaSSIF with 10 mg/ml pancreatin, 37° C.; for remaining at 0.5 h: t=30 mins, pH 6.5, 10 mg/ml pancreatin.
Description: Stability of peptides was tested in Fasted-State Simulated Intestinal Fluid (FaSSIF) prepared according to manufacturer's protocol (Biorelevant, art.no. FFF01, pH 6.5). […] FaSSIF was pre-incubated for 15 min at 37° C. and spiked with test and reference item working solutions. Experiments were conducted in duplicate in a non-serial manner. The total incubation volume per replicate was 150 μl. Sampling time points for test items were 0, 0.5, 2, 5, 10, 15 and 30 min. All samples and calibration standards (prepared in FaSSIF) were precipitated by addition of 300 μl precipitant (ACN / 2% acetic acid / 0.2% HFBA, (precipitation reagent, PR)) containing internal standard (ISTD) to 150 μl sample. After incubation for 1 h at room temperature all samples were centrifuged for 10 min at 2,200×g (room temperature).
For a further series, the target named is T3, human GLP2 receptor (Homo sapiens, UniProt O95838).
T3 construct: expressed in transfected cells; host or cells: HEK cells, BacMam virus transduction
T3 sequence (O95838 1-553): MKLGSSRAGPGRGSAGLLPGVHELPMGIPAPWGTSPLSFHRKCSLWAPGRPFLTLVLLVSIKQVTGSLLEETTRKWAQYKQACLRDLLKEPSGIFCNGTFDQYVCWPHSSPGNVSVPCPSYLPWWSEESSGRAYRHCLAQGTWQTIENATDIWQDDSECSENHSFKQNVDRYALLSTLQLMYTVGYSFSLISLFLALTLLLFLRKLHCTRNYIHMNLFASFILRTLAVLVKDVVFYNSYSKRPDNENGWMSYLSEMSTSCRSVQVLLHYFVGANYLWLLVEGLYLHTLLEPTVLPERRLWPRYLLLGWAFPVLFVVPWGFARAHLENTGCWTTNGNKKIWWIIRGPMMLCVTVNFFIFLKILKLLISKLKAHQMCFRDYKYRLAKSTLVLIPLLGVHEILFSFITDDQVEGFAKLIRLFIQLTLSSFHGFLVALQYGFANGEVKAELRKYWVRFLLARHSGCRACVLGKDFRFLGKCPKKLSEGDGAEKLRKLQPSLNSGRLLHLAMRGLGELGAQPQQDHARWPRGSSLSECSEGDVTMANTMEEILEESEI
Description: cAMP accumulation assay, functional agonism of human GLP2 receptor. The conditions noted are these: HEK cells infected with human GLP2 receptor BacMam virus, HTRF cAMP; for Emax: HEK293, read-out: Human GLP-2R agonist cAMP Emax; for EC50: read-out: Human GLP-2R agonist cAMP pEC50 (converted). The class given is cell-based. Summed up:
as §1

Turning to `CCCC[C@@H]1NC(=O)[C@H](CCC(=O)O)NC(=O)[C@@H](NC(=O)[C@H](CO)NC(=O)[C@](C)(Cc2ccccc2F)NC(=O)[C@H](CO)NC(=O)[C@@H](C)NC(=O)[C@H](CC(=O)O)NC(=O)C(C)(C)NC(=O)[C@@H](N)Cc2c[nH]cn2)CCCCNC(=O)C[C@@H](C(=O)N[C@H](C(=O)N[C@@H](CC(C)C)C(=O)N[C@@H](CC(=O)O)C(=O)N[C@H]2CCC(=O)NCCCC[C@@H](C(=O)N[C@@H](CC(=O)O)C(=O)N[C@@H](Cc3ccccc3)C(=O)N[C@H](C(=O)N[C@@H](CC(N)=O)C(=O)N[C@@H](Cc3c[nH]c4ccccc34)C(=O)N[C@@H](CC(C)C)C(=O)N[C@H](C(=O)N[C@@H](CCC(N)=O)C(=O)N[C@H]3CCC(=O)NCCCC[C@@H](C(N)=O)NC(=O)[C@H]([C@@H](C)O)NC(=O)[C@H]([C@@H](C)CC)NC(=O)[C@H](CCCCN)NC3=O)[C@@H](C)CC)[C@@H](C)CC)NC(=O)[C@H](C)NC(=O)[C@H](C)NC(=O)[C@H](CCCCN)NC2=O)[C@@H](C)CC)NC(=O)[C@@H](Cc2ccccc2)NC1=O` [Example 19] (H-H[Aib]D[dA]S[αMePhe(2-F)]SKE[Nle][dF]DILDEKAAKDFINWLIQEKITK-NH2; lactam 8-12, 16-20, 29-33 (inferred); C-terminus assumed), the Emax (usually the greatest response seen or fitted, relative to the assay's reference) at human GLP1 receptor stood at 95.4%; at mouse GLP2 receptor (HEK293, read-out: Mouse GLP-2R agonist cAMP Emax) it was 101%; on human GLP2 receptor it was 103%. For the same compound, the EC50 at human GLP1 receptor was 251 pM; at mouse GLP2 receptor (read-out: Mouse GLP-2R agonist cAMP pEC50 (converted)), 794 pM; at human GLP2 receptor, 10 pM. In addition, the fraction remaining (usually the share of the starting amount still present when the sample was taken) at 0.5 h in series [1] was 12.2%.

With `CCCC[C@H](NC(=O)[C@H](CCC(=O)O)NC(=O)[C@H](CC(=O)O)NC(=O)[C@H](CO)NC(=O)[C@H](Cc1ccccc1)NC(=O)[C@H](CO)NC(=O)CNC(=O)[C@H](CC(=O)O)NC(=O)C(C)(C)NC(=O)[C@@H](N)Cc1c[nH]cn1)C(=O)N[C@H](Cc1ccccc1)C(=O)N[C@H](C(=O)N[C@H](C(=O)N[C@@H](CC(C)C)C(=O)N[C@@H](CC(=O)O)C(=O)N[C@@H](CC(C)C)C(=O)N[C@@H](CCCCN)C(=O)N[C@@H](C)C(=O)N[C@@H](C)C(=O)N[C@@H](CCCCN)C(=O)N[C@@H](CC(=O)O)C(=O)N[C@@H](Cc1ccccc1)C(=O)N[C@H](C(=O)N[C@@H](CC(N)=O)C(=O)N[C@@H](Cc1c[nH]c2ccccc12)C(=O)N[C@@H](CC(C)C)C(=O)N[C@H](C(=O)N[C@@H](CCC(N)=O)C(=O)N[C@H](C(=O)N[C@H]1CCC(=O)NCCCC[C@@H](C(N)=O)NC(=O)[C@H]([C@@H](C)O)NC(=O)[C@H]([C@@H](C)CC)NC1=O)[C@@H](C)O)[C@@H](C)CC)[C@@H](C)CC)[C@@H](C)CC)[C@@H](C)O` [Example 90] (H-H[Aib]DGSFSDE[Nle][dF]TILDLKAAKDFINWLIQTEITK-NH2; lactam 30-33 (inferred); C-terminus assumed), at human GLP1 receptor, the maximal response (Emax) turned out to be 100% and the EC50 was 7940 pM. Also, the amount remaining at 0.25 h in series [1] (FaSSIF pH 6.5 with 10 mg/ml pancreatin, t = 15 mins) is 22%. For the same compound, at human GLP2 receptor, the maximal response (Emax) came out at 102% and the EC50 was 25.1 pM.

As to `CCCC[C@H](NC(=O)[C@H](CCC(=O)O)NC(=O)[C@@H]1CC(=O)NCCCC[C@H](NC(=O)[C@H](Cc2nn[nH]n2)NC(=O)C(C)(C)C(=O)NCCc2c[nH]cn2)C(=O)N[C@@H](CO)C(=O)N[C@@H](Cc2ccccc2)C(=O)N[C@@H](CO)C(=O)N1)C(=O)N[C@H](Cc1ccccc1)C(=O)N[C@H](C(=O)N[C@@](C)(CC(C)C)C(=O)N[C@@H](CC(C)C)C(=O)N[C@@H](CC(=O)O)C(=O)N[C@H]1CCC(=O)NCCCC[C@@H](C(=O)N[C@@H](CC(=O)O)C(=O)N[C@@H](Cc2ccccc2)C(=O)N[C@H](C(=O)N[C@H]2CCC(=O)NCCCC[C@@H](C(=O)N[C@H](C(=O)N[C@@H](CCCCN)C(N)=O)[C@@H](C)O)NC(=O)[C@H]([C@@H](C)CC)NC(=O)[C@H](CC(C)C)NC(=O)[C@H](Cc3c[nH]c4ccccc34)NC2=O)[C@@H](C)CC)NC(=O)[C@H](C)NC(=O)[C@H](C)NC(=O)[C@H](CCCCN)NC1=O)[C@@H](C)O` [Example 17] ({Malonyl(2,2-Me2,histaminyl)}-[Ala(1H-tetrazol-5-yl)]KSFSDE[Nle][dF]T[αMeL]LDEKAAKDFIEWLIKTK-NH2; lactam 2-6, 14-18, 22-26; C-terminus assumed), on human GLP1 receptor, the Emax amounted to 96.3% and the EC50 was 158 pM. Besides, in series [1], the share remaining at 0.5 h is 68.7%. On human GLP2 receptor, the Emax was determined as 104% and the EC50 was 39.8 pM.

On to `CCCC[C@@H]1NC(=O)[C@H](CCC(=O)O)NC(=O)[C@@H](NC(=O)[C@H](CO)NC(=O)[C@H](Cc2ccccc2)NC(=O)[C@H](CO)NC(=O)CNC(=O)[C@H](Cc2nn[nH]n2)NC(=O)C(C)(C)C(=O)NCCc2c[nH]cn2)CCCCNC(=O)C[C@@H](C(=O)N[C@H](C(=O)N[C@@H](CC(C)C)C(=O)N[C@@H](CC(=O)O)C(=O)N[C@H]2CCC(=O)NCCCC[C@@H](C(=O)N[C@@H](CC(=O)O)C(=O)N[C@@H](Cc3ccccc3)C(=O)N[C@H](C(=O)N[C@@H](CC(N)=O)C(=O)N[C@@H](Cc3c[nH]c4ccccc34)C(=O)N[C@@H](CC(C)C)C(=O)N[C@H](C(=O)N[C@@H](CCC(N)=O)C(=O)N[C@H](C(=O)N[C@H]3CCC(=O)NCCCC[C@@H](C(N)=O)NC(=O)[C@H]([C@@H](C)O)NC(=O)[C@H]([C@@H](C)CC)NC3=O)[C@@H](C)O)[C@@H](C)CC)[C@@H](C)CC)NC(=O)[C@H](C)NC(=O)C(C)(C)NC(=O)[C@H](CCCCN)NC2=O)[C@@H](C)CC)NC(=O)[C@@H](Cc2ccccc2)NC1=O` [Example 12] ({Malonyl(2,2-Me2,histaminyl)}-[Ala(1H-tetrazol-5-yl)]GSFSKE[Nle][dF]DILDEK[Aib]AKDFINWLIQTEITK-NH2; lactam 6-10, 14-18, 28-31; C-terminus assumed), for which, at human GLP1 receptor, the Emax is 94.5% and the EC50 is 251 pM. Also, the fraction remaining at 0.5 h in series [1] is 10.7%. On human GLP2 receptor, the maximal response (Emax) is 105% and the EC50 is 50.1 pM.

In the case of `CCCC[C@@H]1NC(=O)[C@H](CCC(=O)O)NC(=O)[C@@H](NC(=O)[C@H](CO)NC(=O)[C@H](Cc2ccccc2)NC(=O)[C@H](CO)NC(=O)CNC(=O)[C@H](Cc2nn[nH]n2)NC(=O)C(C)(C)C(=O)NCCc2c[nH]cn2)CCCCNC(=O)C[C@@H](C(=O)N[C@@](C)(CC(C)C)C(=O)N[C@@H](CC(C)C)C(=O)N[C@@H](CC(=O)O)C(=O)N[C@H]2CCC(=O)NCCCC[C@@H](C(=O)N[C@@H](CC(=O)O)C(=O)N[C@@H](Cc3ccccc3)C(=O)N[C@H](C(=O)N[C@@H](CC(N)=O)C(=O)N[C@@H](Cc3c[nH]c4ccccc34)C(=O)N[C@@H](CC(C)C)C(=O)N[C@H](C(=O)N[C@@H](CCC(N)=O)C(=O)N[C@H](C(=O)N[C@H]3CCC(=O)NCCCC[C@@H](C(N)=O)NC(=O)[C@H]([C@@H](C)O)NC(=O)[C@H]([C@@H](C)CC)NC3=O)[C@@H](C)O)[C@@H](C)CC)[C@@H](C)CC)NC(=O)[C@H](C)NC(=O)[C@H](C)NC(=O)[C@H](CCCCN)NC2=O)NC(=O)[C@@H](Cc2ccccc2)NC1=O` [Example 11] ({Malonyl(2,2-Me2,histaminyl)}-[Ala(1H-tetrazol-5-yl)]GSFSKE[Nle][dF]D[αMeL]LDEKAAKDFINWLIQTEITK-NH2; lactam 6-10, 14-18, 28-31 (inferred); C-terminus assumed), the maximum response (Emax) on human GLP1 receptor was determined as 95.3%; on human GLP2 receptor, 105%. The figures for the EC50 at human GLP1 receptor and on human GLP2 receptor were 251 pM and 79.4 pM, respectively. Also, in series [1], the fraction remaining at 0.5 h is 22.3%.
